{
  "source": "paper PMC2632993",
  "about": "“Conformational changes in α7 acetylcholine receptors underlying allosteric modulation by divalent cations” (BMC Pharmacology, 2009)",
  "test_in_all_cases": "MTSEA thiol modification rate (SCAM) from ACh-evoked currents in oocytes",
  "type_in_all_cases": "cell-based, chick",
  "conditions_in_all_cases": "10 mM Ba^2+",
  "key": {"[1]": {"target": "T1, α7 AChR M^40C mutant (C^115A/L^247T background) (Gallus gallus, UniProt P22770, C138A/L270T/M63C)", "T1 construct": "expressed in transfected cells; host or cells: Xenopus laevis oocytes injected with cRNA", "description": "(§1) ACh-evoked current amplitudes decreased following brief, repeated exposure to a limiting concentration of MTSEA (5 μM, 15 seconds). To ensure that the modification reactions were complete, all rate measurements included a final prolonged application of ~100-fold higher concentrations of MTSEA (Fig. 3A and 3B, right). Currents measured following this application represent the endpoint of the reaction between MTSEA and receptors. When the same protocol included Ba^2+ pretreatment and co-application with MTSEA (see Methods), the decreases in current amplitudes were slowed but the same endpoint was obtained (Fig. 3B). Normalized current amplitudes were plotted as a function of the cumulative time of exposure to MTSEA, and pseudo first-order rates were extracted from the single-exponential fits (Fig. 3C).\n(§2) Figure 3 Barium slows the rate of MTSEA modification at M^37C. Example of experimental paradigm used to assess Ba^2+ effects on modification rates. […] Endpoints of MTSEA modification are determined by prolonged application of 500 μM MTSEA (right). (B) The same protocol, including Ba^2+ pretreatment and co-application with MTSEA. Current traces are truncated in both (A) and (B) between consecutive MTSEA applications; in all cases the currents were allowed to return to baseline prior to the next application of MTSEA ± ACh. (C) Peak current amplitudes from (A) and (B) are normalized and plotted versus total MTSEA exposure time. Data from this single experiment (no error bars) are fitted to a single-exponential decay (solid line) to extract an apparent pseudo first-order rate constant. The pseudo first-order rate constants calculated in this experiment were 0.011 s^-1 and 0.0019 s^-1 for control (A) and +Ba^2+ (B) measurements, respectively. Second-order rate constants are calculated from these values (Figures 4–6; Table 2).\n(§3) Oocytes were superfused in normal extracellular solution containing a reduced Ca^2+ concentration (ESLC; 96 mM NaCl, 2 mM KCl, 1 mM MgCl2, 0.1 mM CaCl2, and 10 mM HEPES, pH 7.5). This solution minimized Ca^2+ influx and eliminated Ca^2+-activated chloride currents. Two-electrode voltage clamp was performed with a GeneClamp 500B controlled by pCLAMP8 software (Molecular Devices, Sunnyvale, CA). Electrodes were filled with 3 M KCl contacting Ag-AgCl wires and had resistances of 0.5 to 2.0 MΩ. Currents were recorded at a constant holding potential of -60 mV. Currents were low pass filtered at 50 Hz and sampled at 100 Hz. Agonist dose-response curves were obtained as described previously, and data were fit to the Hill equation using Origin software (Microcal Software, Northampton, MA).\n(§4) MTSEA was prepared daily in distilled water and stored on ice. Stock solution was diluted to the appropriate working concentration in ESLC immediately before each application. […] The limiting dose, yielding 20–40% of the maximal MTSEA effect, was identified for each mutant. […] To measure the effect of Ba^2+ on modification rates we pre-applied 10 mM Ba^2+ for 30 seconds prior to co-application of 10 mM Ba^2+ plus MTSEA. This concentration of Ba^2+ is equivalent to an approximate […] for the modulatory effects in both parental and mutant AChRs. Kinetic data were analyzed as described previously; rate data were fit to a single exponential to extract a pseudo-first order rate constant; this was divided by the MTSEA concentration used to determine the second order rate constant for thiol modification."}, "[2]": {"target": "α7 AChR M^37C mutant (C^115A/L^247T background) (Gallus gallus, UniProt P22770, C138A/L270T/M60C)", "description": "as §1, §2, §3, §4"}, "[3]": {"target": "α7 AChR E^172C mutant (C^115A/L^247T background) (Gallus gallus, UniProt P22770, C138A/E195C/L270T)", "description": "as §1, §2, §3, §4"}, "[4]": {"target": "α7 AChR M^40C/E^172Q mutant (C^115A/L^247T background) (Gallus gallus, UniProt P22770, C138A/E195Q/L270T/M63C)", "description": "as §1, §2, §3, §4"}, "[5]": {"target": "α7 AChR N^52C mutant (C^115A/L^247T background) (Gallus gallus, UniProt P22770, C138A/L270T/N75C)", "description": "as §1, §2, §3, §4"}, "[6]": {"target": "α7 AChR E^44C mutant (C^115A/L^247T background) (Gallus gallus, UniProt P22770, C138A/E67C/L270T)", "description": "as §1, §2, §3, §4"}, "[7]": {"target": "α7 AChR N^170C mutant (C^115A/L^247T background) (Gallus gallus, UniProt P22770, C138A/L270T/N193C)", "description": "as §1, §2, §3, §4"}},
  "data": [
    {"smiles": "[Ba+2].[Cl-].[Cl-]", "note": "[Ba^2+, BaCl2]", "values": [
      {"measurement": "effect of Ba^2+ on MTSEA modification rate", "setting": "[1]", "value": "significant decreases"},
      {"measurement": "effect of Ba^2+ on MTSEA modification rate", "setting": "[2]", "value": "significant decreases"},
      {"measurement": "effect of Ba^2+ on MTSEA modification rate", "setting": "[3]", "value": "significant Ba^2+-dependent decreases"},
      {"measurement": "effect of Ba^2+ on MTSEA modification rate", "setting": "[4]", "value": "significant slowing"},
      {"measurement": "effect of Ba^2+ on MTSEA modification rate", "setting": "[5]", "value": "no significant effect"},
      {"measurement": "effect of Ba^2+ on MTSEA modification rate", "setting": "[6]", "value": "significant Ba^2+-dependent decreases"},
      {"measurement": "effect of Ba^2+ on MTSEA modification rate", "setting": "[7]", "value": "the same as that measured in MTSEA alone"}
    ]}
  ]
}
